Results: a melting point compilation (Tetko et al.; mined from patent text by program, amines drawn as free bases though some values may be those of a salt)

melting point [°C]	SMILES
170 to 172	Cc1cc(-c2ccc(F)cc2F)n(-c2ccc(S(N)(=O)=O)cc2)c1
175 to 180	N#Cc1ccc(Nc2nc(Cc3c(Cl)cccc3Cl)cc(NC(=O)CN3CCCCC3)n2)cc1
228	c1ccc(COc2ccc(-c3nnn[nH]3)cc2)cc1
137 to 139	C=CCOn1cnc2c(Cl)nc(N)nc21
105 to 106	CC(C)(C)c1ccc(C(=O)CCCN2CCC(C(=O)c3nc4ccccc4n3Cc3ccc(F)cc3)CC2)cc1
68 to 70	OC(COc1cccc2ccccc12)CN1CCCC1 (stereo unspecified)
126 to 129	O=C(O)CC1CC(c2ccccc2)c2ccccc21 (stereo unspecified)
> 300	CCCCCCC(=Cc1ccc(-c2nnn[nH]2)cc1)C(OC)=C1SC(=S)NC1=O
168 to 170	Cc1nc(Nc2ccccc2)sc1-c1ccncc1
105 to 107	CN(CCCNc1ncc(Cc2cccc(Cl)c2)c(=O)[nH]1)c1ccccn1
162	COc1cc2c(cc1OC)[C@H]1CCCC[C@H]1N=C2c1ccc(C(C)=NNC(=O)c2cccnc2)cc1
131 to 134	CCN1c2ncccc2C(=O)Nc2c(C)cc(N3CCC(O)C3)nc21 (stereo unspecified)
158 to 160	CN(C)c1ccc(NS(=O)(=O)c2cccc(-c3ccc(F)cc3)c2)cc1
160 to 164	CC(=O)c1ccc(-c2ccc(S(C)(=O)=O)cc2)o1
145	CC(CCNC(=O)CC#N)NC(=O)CC#N (stereo unspecified)
161 to 164	O=C(NCC1CC2C=CC1C2)NS(=O)(=O)C=Cc1ccccc1 (stereo unspecified)
115 to 117	O=[N+]([O-])C(=Cc1ccco1)C1=NCCN1CC1CCOC1 (stereo unspecified)
160 to 162	COC(=O)c1nn(-c2ccc(I)cc2F)cc(OC)c1=O
213 to 214	Cc1ncn(-c2ccccc2CNC(=O)c2nc3n(c(=O)c2OCc2ccccc2)CCOC3(C)C)n1
103 to 104	CCCC(O)C1(C)OC(C)=C(O)C1=O (stereo unspecified)
65 to 67	CCOC(=O)C1CC2CCC(=O)N2C1=O (stereo unspecified)
170 to 172	O=[N+]([O-])c1cccc(NN=C(c2ccc(Cl)cc2)c2ccc(Cl)cc2)c1
215 to 217	COc1ccc(C=CC2=NN(c3ccc([N+](=O)[O-])cc3)C(c3ccc(OC)c(O)c3)C2)cc1O (stereo unspecified)

melting point [°C]	SMILES
58	COc1ccc(C2(O)CCCN(Cc3ccccc3)C2)cc1 (stereo unspecified)
75	COC(=O)c1ccc(-c2ccc3c(c2)CCN(C2CCN(C4CCC4)C2)C3=O)c(F)c1 (stereo unspecified)
> 320	COc1ccc2[nH]cc(-c3cc4c(C(N)=O)ccnc4[nH]3)c2c1
146	Cc1nc(Nc2ccc(C(C)C)cc2Br)c([N+](=O)[O-])c(-c2ccccc2C(F)(F)F)n1
212 to 214	CNC(=O)C1=C(c2ccccc2)OC(c2ccccc2)CC1=O (stereo unspecified)
173 to 175	O=C(c1ccc(N2CCOCC2)cc1)c1ccc([N+](=O)[O-])cc1
286 to 288	COc1cc(C(=O)O)ccc1Cn1cc(/C=C/C(=O)N2CCCC2)c2ccc(/C=C/C(=O)N3CCCC3)cc21
84 to 85	CC(C)(C)OC(=O)N1CC[C@@H](C(=O)N[C@@H](CC(=O)OCc2ccccc2)C(=O)N[C@@H](Cc2ccccc2)C(=O)OCc2ccccc2)C1
193 to 196	COc1ccccc1-c1cn(C)cc(-c2cccc(C(F)(F)F)c2)c1=O
41 to 43	CCCCCCCCCCCCCCC(=O)C(=O)N[C@@H](CCCC)COCC(=O)OCC
246 to 248	O=C(c1ccc(Nc2ccnc3cc(C(F)(F)F)ccc23)cc1)N1CCN(c2ncccn2)CC1
238 to 240	O=C1Nc2ccccc2SC1=Cc1ccc(Cl)cc1
107 to 109	OC(CNc1ccc(Cl)cc1Cl)Cn1ccnc1 (stereo unspecified)
97	CCCc1cc(C(O)(CC)CC)ccc1-c1cc(OCc2ccc(CO)c(CO)c2)ccc1C
144	CC(C(=O)NO)c1ccc(C(=O)c2cccs2)cc1 (stereo unspecified)
149 to 151	Cc1cccc(C(=O)Nc2c[nH]nc2C(=O)NCCC#N)c1
158 to 160	COC(=O)NC(=N)N(C(=O)OC)c1c(Cc2ccccc2)c[nH]c1C(=O)OC
223 to 224	CC1(C)Oc2ccc(-n3c(=O)[nH]c4cccnc43)cc2O1
194 to 196	CC12CCC3c4ccc(O)cc4CC(CCCCCO)C3C1C=CC2=O (stereo unspecified)
170 to 171	CC(C)Oc1ccc(OCc2ccccc2)cc1-c1nc2cc(C=O)cnc2[nH]1
207	Cc1nc2nc(-c3ccc(C4(N)CCC4)cc3)c(-c3ccccc3)cn2n1
257	O=P(O)(O)C(O)(Cc1ccc2ccccc2c1)P(=O)(O)O
70 to 73	CCCCCCCCCCCCCCCCCCN1C(=O)CC(c2cc(C(C)(C)C)c(O)c(C(C)(C)C)c2)C1=O (stereo unspecified)

melting point [°C]	SMILES
151 to 153	O=c1c(CCl)csc2ccc3ccccc3c12
85 to 87	CCCOc1cccc(OCCC)c1C(=O)Nc1cc(C(C)(C)C)no1
63 to 64	COc1ccc(OCCCCCCO)cc1
242 to 243	CCOC(=O)c1cnn(C)c1C(=O)Nc1ccn2nc(-c3ccccc3)nc2c1
193 to 194	CC(C)(C)OCCCNC(=O)c1n[nH]cc1NC(=O)c1ccccn1
> 300	O=C1Nc2cc(NC(=O)c3cccn(-c4ccccc4)c3=O)ccc2/C1=C/c1ccc[nH]1
97 to 99	C#CCCOC(c1ccccc1)(c1ccccc1)c1ccccc1
220 to 222	Fc1ccc(-c2c[nH]c(C3CCN(CC4CCCCC4)CC3)n2)cc1
93 to 95	Cc1cc2cc(O)c(Cl)c(Cl)c2s1
55 to 57	O=S(=O)(c1ccccc1)n1cc(CCOC2OC(CO)C(O)CC2O)c2ccccc21 (stereo unspecified)
126	N#Cc1cc([N+](=O)[O-])ccc1Oc1ccccc1
177	Cc1cc(SCc2ccc(-c3ccc(C(F)(F)F)cc3)cc2)c2c(c1OCC(=O)O)CCC2
168 to 169	CC(C)c1csc(C(C)C)c1NC(=S)NC(C)(C)C
86 to 87	CCCc1nc(Nc2ccc(F)c(Cl)c2)nc(NC2CCN(S(C)(=O)=O)CC2)n1
148 to 149	CCN(CC)CCN1C(=O)C(OC(C)=O)C(c2ccc(OC)cc2)Sc2c1ccc1ccccc21 (stereo unspecified)
60 to 62	CCc1cc(C)nc2c(C)ccc(N)c12
220	CS(=O)(=O)Nc1cc([C@@H](O)CNC2CCN(c3ccc(/C=C/C(=O)O)cc3)CC2)ccc1O
106 to 110	C[C@@H](NC(=O)c1ccc(-c2cc(C(F)(F)F)nn2C)s1)[C@](O)(Cn1cncn1)c1ccc(F)cc1F
60 to 62	Fc1ccc(C2Cc3cnc(NCCCN4CCCCC4)nc3-c3ccccc32)cc1 (stereo unspecified)
62 to 64	COc1ccc(CCN(C)CCCN(C(C)C)S(=O)(=O)c2ccc(Cl)c(Cl)c2)cc1OC
243 to 245	Cc1cc(Cl)c2[nH]nc(-c3ccc(Cl)cc3)c2n1
77 to 78	Cc1cc(OC(C)(C)C(=O)O)cc(C)c1C
167	CCCCCCCCc1ccc(-c2cnc(-c3ccc(O)cc3F)nc2)cc1

melting point [°C]	SMILES
217 to 219	COc1c(F)cc2c(O)c(C(=O)NCc3ccc(Cl)cc3)cnc2c1F
128 to 131	CCOC(=O)Cc1sc(Sc2cc(C(=O)OC)c3ccccc3n2)nc1C
177 to 178	CN(C)c1cc(-c2nnn(Cc3ccc(C(=O)O)cc3)n2)ccc1OC(=O)C(C)(C)C
41 to 43	COC(=O)c1cc(I)cc(Cl)c1OC
126 to 127	CC(=O)O[C@@H]1[C@H](OC(C)=O)[C@@H](C)O[C@H]1n1c(Cl)nc2c(Cl)c(Cl)c(Cl)cc21
193	COc1ccc(C(=O)c2cc(-c3ccncc3)c(N3CCOCC3)s2)cc1
275	O=C(Nc1ncc(C(=O)NCCO)s1)c1cn(Cc2ccc(Cl)c(Cl)c2)nn1
75 to 76	CCCc1c(OCc2ccc(CC#N)cc2)ccc(C(C)=O)c1O
131 to 133	CCCC1(CCC(C)=O)Cc2cc(CCC(=O)O)c(Cl)c(Cl)c2C1=O (stereo unspecified)
84 to 86	CN(C)c1c(-c2ccccc2)sc2ccccc12
140 to 142	O=C(c1ccccc1)C(Cc1ccc(Cl)cc1)c1cccnn1 (stereo unspecified)
118 to 125	NC(=C[N+](=O)[O-])NC1CCCCCC1
100	CCCCCCCCCCOC(=O)C1=C(C)OC(N)=C(C(=O)OCC)C1c1cccc([N+](=O)[O-])c1 (stereo unspecified)
64 to 66	OCCn1cc(Br)c(Br)n1
117 to 118	COc1ccc(CNc2nc(SC)ncc2C(=O)OCc2ccccn2)cc1Cl
147 to 149	COC(C)=Nc1nc[nH]c1C#N
61 to 63	CCCCCCCCCCC=C1SC(=S)N(CC(=O)O)C1=O
140 to 145	CC(=O)Nc1nc(CN2CCN(C(c3ccccc3)c3ccc(Cl)cc3)CC2)cs1 (stereo unspecified)
250 to 260	O=[N+]([O-])c1ccc(C=Cc2nc(Nc3ccc(O)cc3)c3ccccc3n2)o1
160 to 161	COC(=O)c1ccc(NC(=O)c2ccccc2-c2ccccc2)cc1
> 285	CN1CCN(c2ccnc3c(NC(=O)c4c(Cl)cccc4Cl)cc(C(F)(F)F)cc23)C1=O
68 to 73	CC(C)(C)c1cc(CO)c(O)c(CO)c1
51 to 53	CCOC(=O)c1ccnn1-c1c(Cl)cccc1Cl

SMILES	melting point [°C]
NC(=O)c1cncn1C(c1ccccc1)c1ccccc1	153
CCOP(=O)(OCC)C(O)c1cccc([N+](=O)[O-])c1 (stereo unspecified)	93 to 95
O=C(O)C(O)Cn1nnnc1S (stereo unspecified)	143 to 146
O=C1c2ccccc2-n2cnc(-c3nc(C4CC4)no3)c2[C@@H]2CCCN12	211 to 212
Nc1cccc(-c2ccc(CCN3CCN(C(=O)Oc4ccccc4)CC3)cc2)n1	102 to 104
CCN1CCC(c2ccccc2)=C(C(=O)OCC2CCCCC2)C1	94 to 97
c1ccc(COc2cnc(N3CCNCC3)nc2)cc1	94 to 97
CC12CC(=O)C3C(CCC4CC(O)CCC43C)C1CCC2C(=O)CCO (stereo unspecified)	156 to 158
CC[C@H](C)N1CC(C)(C)[C@@H](Oc2ccc(C#N)c(C(F)(F)F)c2)C1=O	101 to 102
